Here are results for seven compounds from ChEMBL document CHEMBL4840372, “Talarodrides A-F, Nonadrides from the Antarctic Sponge-Derived Fungus Talaromyces sp. HDN1820200” (J Nat Prod, 2021).

In one test the test system is Bel-7402. Kind of test: Cytotoxicity against human Bel-7402 cells assessed as reduction in cell viability by SRB assay. It counts as functional, cell-based.
A further test has as its system Bacillus cereus. The experiment in a line: Antimicrobial activity against Bacillus cereus assessed as reduction in bacterial growth by agar dilution method. In kind it is functional.
A further test relates to K562. Kind of test: Cytotoxicity against human K562 cells assessed as reduction in cell viability by MTT assay. It counts as functional, cell-based. A general note: Tetrazolium assays rely on reduction of a dye to a coloured formazan, in cell work by metabolically active cells.
For the next test, the system named is GES1. Kind of test: Cytotoxicity against human GES1 cells assessed as reduction in cell viability by SRB assay. In kind it is functional, cell-based. (In general: The SRB assay estimates cell density from bound dye.)
In the next test the test system is Proteus mirabilis. Kind of test: Antimicrobial activity against Proteus mirabilis assessed as reduction in bacterial growth by agar dilution method. It counts as functional. In general terms: In agar dilution the substance is mixed into plates at graded concentrations.
A further test relates to NCI-H446. Kind of test: Cytotoxicity against human NCI-H446 cells assessed as reduction in cell viability by SRB assay. It counts as functional, cell-based.
For the next test, the system named is PC-3. The experiment in a line: Cytotoxicity against human PC-3 cells assessed as reduction in cell viability by SRB assay. It counts as functional, cell-based.
For a further test, the system named is Escherichia coli. Kind of test: Antimicrobial activity against Escherichia coli assessed as reduction in bacterial growth by agar dilution method. It counts as functional.
The test system of another test is Staphylococcus. The experiment in a line: Antimicrobial activity against methicillin-resistant coagulase-negative Staphylococci assessed as reduction in bacterial growth by agar dilution method. It counts as functional.
The subject of another test is MCF7. Kind of test: Cytotoxicity against human MCF7 cells assessed as reduction in cell viability by SRB assay. In kind it is functional, cell-based.
The subject of the next test is ASPC1. The experiment in a line: Cytotoxicity against human ASPC1 cells assessed as reduction in cell viability by SRB assay. It counts as functional, cell-based.
The next test concerns Acinetobacter baumannii. Kind of test: Antimicrobial activity against Acinetobacter baumannii assessed as reduction in bacterial growth by agar dilution method. In kind it is functional.
The subject of the next test is MDA-MB-231. Kind of test: Cytotoxicity against human MDA-MB-231 cells assessed as reduction in cell viability by SRB assay. It counts as functional, cell-based.
The subject of the next test is Vibrio parahaemolyticus. The experiment in a line: Antimicrobial activity against Vibrio parahaemolyticus assessed as reduction in bacterial growth by agar dilution method. In kind it is functional.
Test [1] in a line: Cytotoxicity against human HO-8910 cells assessed as reduction in cell viability by SRB assay. It counts as functional, cell-based.
For the next test, the system named is U-87 MG. Kind of test: Cytotoxicity against human U87 cells assessed as reduction in cell viability by SRB assay. In kind it is functional, cell-based, U-87MG ATCC.
In the next test the test system is Staphylococcus aureus. Kind of test: Antimicrobial activity against methicillin-resistant Staphylococcus aureus assessed as reduction in bacterial growth by agar dilution method. It counts as functional.
The subject of another test is MGC-803. Kind of test: Cytotoxicity against human MGC-803 cells assessed as reduction in cell viability by SRB assay. It counts as functional, cell-based.
For another test, the system named is HCT-116. The experiment in a line: Cytotoxicity against human HCT-116 cells assessed as reduction in cell viability by SRB assay. It counts as functional, cell-based.
Another test relates to Edwardsiella tarda. Kind of test: Antimicrobial activity against Edwardsiella tarda assessed as reduction in bacterial growth by agar dilution method. In kind it is functional.
The test system of another test is Bacillus subtilis. Kind of test: Antimicrobial activity against Bacillus subtilis assessed as reduction in bacterial growth by agar dilution method. It counts as functional.
The test system of another test is A549. The experiment in a line: Cytotoxicity against human A549 cells assessed as reduction in cell viability by SRB assay. In kind it is functional, cell-based.
Another test relates to SH-SY5Y. Kind of test: Cytotoxicity against human SH-SY5Y cells assessed as reduction in cell viability by SRB assay. It counts as functional, cell-based.
In another test the test system is L02. The experiment in a line: Cytotoxicity against human L02 cells assessed as reduction in cell viability by SRB assay. In kind it is cell-based.
The test system of the next test is HeLa. Kind of test: Cytotoxicity against human HeLa cells assessed as reduction in cell viability by SRB assay. In kind it is functional, cell-based.
The subject of another test is Mycolicibacterium phlei. Kind of test: Antimicrobial activity against Mycobacterium phlei assessed as reduction in bacterial growth by agar dilution method. It counts as functional.

Converted amounts (≈) assume the structure as drawn.

With `CCCC[C@H]1CC2C([C@@H](O)C(=O)[C@H](O)CCC)C=C3C4(OC(=O)[C@]3(C)CC3=C(C(=O)OC3=O)C24)O1` (stereo partly specified), the 50% inhibitory concentration (IC50) with Bel-7402, in the test with K562, in the test on GES1, in the test on NCI-H446, with PC-3 and in the test on MCF7 was greater than 30 µM each time. Further, the half-maximal inhibitory concentration (IC50) (in the test on ASPC1; with MDA-MB-231; in [1]; in the test with U-87 MG; in the test with MGC-803; with HCT-116) was greater than 30 µM throughout. The IC50 with A549, with SH-SY5Y, with L02 and in the test on HeLa was greater than 30 µM each time. The MIC in the test with Bacillus cereus, in the test on Proteus mirabilis, in the test on Escherichia coli, in the test on Staphylococcus, with Acinetobacter baumannii and in the test on Vibrio parahaemolyticus was greater than 50 µM throughout. Moreover, the minimal inhibitory concentration (MIC) in the test on Staphylococcus aureus, in the test with Edwardsiella tarda, in the test with Bacillus subtilis and with Mycolicibacterium phlei was greater than 50 µM throughout.

In the case of `CCCCCCC1C([C@@H](O)C(=O)[C@H](C)CCC)C=C2C3(OC)OC(=O)[C@]2(C)CC2=C(C(=O)OC2=O)C13` (stereo partly specified), the IC50 in the test on Bel-7402, in the test on K562, in the test on GES1, in the test with NCI-H446, in the test with PC-3 and with MCF7 was greater than 30 µM in each case. Also, the IC50 (with ASPC1; in the test on MDA-MB-231; in test [1]; in the test on U-87 MG; with MGC-803; in the test with HCT-116) was greater than 30 µM throughout. Besides, the IC50 in the test with A549, with SH-SY5Y, in the test with L02 and in the test on HeLa was greater than 30 µM each time. In addition, the minimum inhibitory concentration (MIC) in the test on Bacillus cereus, in the test with Proteus mirabilis, in the test on Escherichia coli, in the test with Staphylococcus, with Acinetobacter baumannii and with Vibrio parahaemolyticus was greater than 50 µM throughout. Also, the minimal inhibitory concentration (MIC) in the test with Staphylococcus aureus, with Edwardsiella tarda, in the test with Bacillus subtilis and with Mycolicibacterium phlei was greater than 50 µM throughout.

With `CCCCCCC1C([C@@H](O)C(=O)[C@H](O)CCC)C=C2C3(OC)OC(=O)[C@]2(C)CC2=C(C(=O)OC2=O)C13` (stereo partly specified), the IC50 in the test with Bel-7402, in the test on K562, in the test with GES1, in the test with NCI-H446, in the test with PC-3 and with MCF7 was greater than 30 µM in each case. Moreover, the IC50 (in the test with ASPC1; with MDA-MB-231; in test [1]; with U-87 MG; with MGC-803; with HCT-116) was greater than 30 µM in each case. The IC50 in the test with A549, in the test with SH-SY5Y, in the test with L02 and with HeLa was greater than 30 µM each time. The MIC was greater than 50 µM in the test with Bacillus cereus; 3.13 µM (≈ 1.58 µg/mL) in the test on Proteus mirabilis; greater than 50 µM with Escherichia coli; greater than 50 µM with Staphylococcus; greater than 50 µM with Acinetobacter baumannii; 6.13 µM (≈ 3.09 µg/mL) with Vibrio parahaemolyticus. Besides, the MIC with Staphylococcus aureus, in the test with Edwardsiella tarda, in the test with Bacillus subtilis and in the test on Mycolicibacterium phlei was greater than 50 µM in each case.

In the case of `CCCCCCC1C2C(=O)C(=CC1[C@@H](O)C(=O)[C@H](O)CCC)[C@](C)(C(=O)OC)CC1=C2C(=O)OC1=O` (stereo partly specified), the IC50 in the test with Bel-7402, in the test on K562, in the test on GES1, in the test on NCI-H446, in the test with PC-3 and in the test on MCF7 was greater than 30 µM each time. The IC50 (in the test on ASPC1; in the test on MDA-MB-231; in test [1]; in the test on U-87 MG; in the test with MGC-803; in the test with HCT-116) was greater than 30 µM each time. Besides, the IC50 in the test with A549, with SH-SY5Y, in the test with L02 and with HeLa was greater than 30 µM each time. Further, the MIC in the test on Bacillus cereus, with Proteus mirabilis, in the test on Escherichia coli, in the test with Staphylococcus, in the test on Acinetobacter baumannii and in the test on Vibrio parahaemolyticus was greater than 50 µM each time. In addition, the MIC with Staphylococcus aureus, in the test with Edwardsiella tarda, in the test with Bacillus subtilis and with Mycolicibacterium phlei was greater than 50 µM each time.

For the compound `CCCCCCC1C([C@@H](O)C(=O)[C@H](O)CCC)C=C2C3(O)OC(=O)[C@]2(C)CC2=C(C(=O)OC2=O)C13` (stereo partly specified), the IC50 in the test on Bel-7402, in the test on K562, with GES1, with NCI-H446, with PC-3 and in the test with MCF7 was greater than 30 µM throughout. The IC50 (with ASPC1; in the test with MDA-MB-231; in [1]; in the test on U-87 MG; in the test on MGC-803; in the test on HCT-116) was greater than 30 µM each time. In addition, the IC50 with A549, in the test on SH-SY5Y, in the test with L02 and in the test with HeLa was greater than 30 µM throughout. Further, the MIC is greater than 50 µM in the test with Bacillus cereus; 12.5 µM (≈ 6.13 µg/mL) in the test with Proteus mirabilis; greater than 50 µM in the test on Escherichia coli; greater than 50 µM with Staphylococcus; greater than 50 µM in the test on Acinetobacter baumannii; greater than 50 µM in the test on Vibrio parahaemolyticus. Besides, the MIC in the test with Staphylococcus aureus, with Edwardsiella tarda, in the test with Bacillus subtilis and with Mycolicibacterium phlei was greater than 50 µM throughout.

In the case of `O=C(O)c1cn(C2CC2)c2cc(N3CCNCC3)c(F)cc2c1=O` [CIPROFLOXACIN], the MIC with Bacillus cereus was found to be 0.78 µM (≈ 0.258 µg/mL); in the test on Proteus mirabilis it was 0.098 µM (≈ 0.0325 µg/mL); in the test on Escherichia coli, 25 µM (≈ 8.28 µg/mL); with Staphylococcus it was 25 µM (≈ 8.28 µg/mL); with Acinetobacter baumannii it was 25 µM (≈ 8.28 µg/mL); in the test on Vibrio parahaemolyticus, 0.39 µM (≈ 0.129 µg/mL). Moreover, the MIC turned out to be 25 µM (≈ 8.28 µg/mL) in the test on Staphylococcus aureus, 0.0245 µM (≈ 0.00812 µg/mL) with Edwardsiella tarda, 0.195 µM (≈ 0.0646 µg/mL) with Bacillus subtilis and 0.195 µM (≈ 0.0646 µg/mL) with Mycolicibacterium phlei.

`CCCCCCC1C2C(=O)C(=CC1[C@@H](O)C(=O)[C@H](O)CCC)[C@@H](C)CC1=C2C(=O)OC1=O` (stereo partly specified): the IC50 in the test with Bel-7402, in the test on K562, in the test on GES1, in the test on NCI-H446, with PC-3 and with MCF7 was greater than 30 µM throughout. Moreover, the IC50 (in the test on ASPC1; with MDA-MB-231; in test [1]; with U-87 MG; in the test on MGC-803; with HCT-116) was greater than 30 µM each time. For the same compound, the IC50 in the test with A549, in the test on SH-SY5Y, in the test with L02 and in the test with HeLa was greater than 30 µM each time. For the same compound, the MIC in the test on Bacillus cereus, with Proteus mirabilis, with Escherichia coli, with Staphylococcus, in the test with Acinetobacter baumannii and with Vibrio parahaemolyticus was greater than 50 µM each time. Moreover, the MIC in the test on Staphylococcus aureus, with Edwardsiella tarda, with Bacillus subtilis and with Mycolicibacterium phlei was greater than 50 µM throughout.

The IC50 is the concentration needed to halve the response being measured. Usually MIC stands for the lowest concentration that inhibits growth of the organism.
